In PubChem BioAssay (NCI):
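Dose response: 5 concentrations. Exposure: 48 h. Format: 96-well plates. Endpoint: linear interpolation; highest concentration if not reached. GI50 marks 50% less growth. TGI is the concentration that stops growth completely.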

Key:
Test in all cases: NCI anticancer screen, dose series, 48 h
HL-60(TB) leukemia = tested on: HL-60(TB) leukemia
HOP-62 NSCLC = tested on: HOP-62 NSCLC
NCI-H23 lung = tested on: NCI-H23 lung
OVCAR-3 ovarian = tested on: OVCAR-3 ovarian
M14 melanoma = tested on: M14 melanoma
MDA-MB-435 = tested on: MDA-MB-435
UO-31 renal = tested on: UO-31 renal
A549 NSCLC = tested on: A549 NSCLC
U251 CNS = tested on: U251 CNS
HS 578T breast = tested on: HS 578T breast
SNB-75 CNS = tested on: SNB-75 CNS
SK-MEL-2 melanoma = tested on: SK-MEL-2 melanoma
MCF7 breast = tested on: MCF7 breast
RXF 393 renal = tested on: RXF 393 renal
TK-10 renal = tested on: TK-10 renal
PC-3 prostate = tested on: PC-3 prostate
SF-268 CNS = tested on: SF-268 CNS
NCI-H522 lung = tested on: NCI-H522 lung
MOLT-4 leukemia = tested on: MOLT-4 leukemia
EKVX NSCLC = tested on: EKVX NSCLC
OVCAR-5 ovarian = tested on: OVCAR-5 ovarian
BT-549 breast = tested on: BT-549 breast
SNB-19 CNS = tested on: SNB-19 CNS
SN12C renal = tested on: SN12C renal
LOX IMVI melanoma = tested on: LOX IMVI melanoma
K-562 leukemia = tested on: K-562 leukemia
786-0 renal = tested on: 786-0 renal
SR leukemia = tested on: SR leukemia
MALME-3M melanoma = tested on: MALME-3M melanoma
HOP-92 NSCLC = tested on: HOP-92 NSCLC
SF-295 CNS = tested on: SF-295 CNS
HCT-116 colon = tested on: HCT-116 colon
CAKI-1 renal = tested on: CAKI-1 renal
MDA-MB-231 breast = tested on: MDA-MB-231 breast
UACC-62 melanoma = tested on: UACC-62 melanoma
OVCAR-8 ovarian = tested on: OVCAR-8 ovarian
HT29 colon = tested on: HT29 colon
SK-OV-3 ovarian = tested on: SK-OV-3 ovarian
HCC-2998 colon = tested on: HCC-2998 colon
HCT-15 colon = tested on: HCT-15 colon
MDA-MB-468 breast = tested on: MDA-MB-468 breast
ACHN renal = tested on: ACHN renal
SF-539 CNS = tested on: SF-539 CNS
NCI-H226 lung = tested on: NCI-H226 lung
RPMI-8226 leukemia = tested on: RPMI-8226 leukemia
UACC-257 melanoma = tested on: UACC-257 melanoma
NCI-H460 lung = tested on: NCI-H460 lung
SK-MEL-5 melanoma = tested on: SK-MEL-5 melanoma
A498 renal = tested on: A498 renal
COLO 205 colon = tested on: COLO 205 colon
CCRF-CEM leukemia = tested on: CCRF-CEM leukemia
T-47D breast = tested on: T-47D breast
IGROV1 ovarian = tested on: IGROV1 ovarian
SW-620 colon = tested on: SW-620 colon
SK-MEL-28 melanoma = tested on: SK-MEL-28 melanoma
DU-145 prostate = tested on: DU-145 prostate
OVCAR-4 ovarian = tested on: OVCAR-4 ovarian
KM12 colon = tested on: KM12 colon

## C=C1CC[C@@H]2[C@]3(C)COC(c4cn(-c5ccccc5)nc4-c4ccccc4)O[C@@H]3CC[C@@]2(C)[C@@H]1C/C=C1/C(=O)OC[C@H]1O (stereo partly specified)
HL-60(TB) leukemia
  GI50: 2.32 µM
  TGI: 7.46 µM
HOP-62 NSCLC
  GI50: 1.87 µM
  TGI: 3.84 µM
NCI-H23 lung
  GI50: 1.69 µM
  TGI: 3.08 µM
OVCAR-3 ovarian
  GI50: 1.82 µM
  TGI: 3.35 µM
M14 melanoma
  GI50: 1.81 µM
  TGI: 3.62 µM
MDA-MB-435
  GI50: 1.86 µM
  TGI: 4.19 µM
UO-31 renal
  GI50: 1.35 µM
  TGI: 2.69 µM
A549 NSCLC
  GI50: 2.49 µM
  TGI: 7.11 µM
U251 CNS
  GI50: 1.84 µM
  TGI: 3.71 µM
HS 578T breast
  GI50: 2.31 µM
  TGI: 6.54 µM
SNB-75 CNS
  GI50: 1.36 µM
  TGI: 3.9 µM
SK-MEL-2 melanoma
  GI50: 1.74 µM
  TGI: 3.54 µM
MCF7 breast
  GI50: 2 µM
  TGI: 9.09 µM
RXF 393 renal
  GI50: 1.4 µM
  TGI: 2.84 µM
TK-10 renal
  GI50: 1.78 µM
  TGI: 3.39 µM
PC-3 prostate
  GI50: 1.95 µM
  TGI: 4.7 µM
SF-268 CNS
  GI50: 3.2 µM
  TGI: 20.5 µM
NCI-H522 lung
  GI50: 1.9 µM
  TGI: 3.86 µM
MOLT-4 leukemia
  GI50: 1.97 µM
  TGI: > 100 µM
EKVX NSCLC
  GI50: 2.07 µM
  TGI: 4.65 µM
OVCAR-5 ovarian
  GI50: 1.86 µM
  TGI: 4.02 µM
BT-549 breast
  GI50: 1.64 µM
  TGI: 3.16 µM
SNB-19 CNS
  GI50: 1.85 µM
  TGI: 3.78 µM
SN12C renal
  GI50: 1.87 µM
  TGI: 3.96 µM
LOX IMVI melanoma
  GI50: 1.54 µM
  TGI: 3 µM
K-562 leukemia
  GI50: 2.97 µM
  TGI: > 100 µM
786-0 renal
  GI50: 2.03 µM
  TGI: 4.47 µM
SR leukemia
  GI50: 3.79 µM
  TGI: > 100 µM
MALME-3M melanoma
  GI50: 1.73 µM
  TGI: 3.18 µM
HOP-92 NSCLC
  GI50: 1.53 µM
  TGI: 2.99 µM
SF-295 CNS
  GI50: 1.64 µM
  TGI: 3.05 µM
HCT-116 colon
  GI50: 1.61 µM
  TGI: 3.55 µM
CAKI-1 renal
  GI50: 1.86 µM
  TGI: 4.81 µM
MDA-MB-231 breast
  GI50: 1.72 µM
  TGI: 3.25 µM
UACC-62 melanoma
  GI50: 1.65 µM
  TGI: 3.2 µM
OVCAR-8 ovarian
  GI50: 1.81 µM
  TGI: 5.31 µM
HT29 colon
  GI50: 2.37 µM
  TGI: 6.77 µM
SK-OV-3 ovarian
  GI50: 4.75 µM
  TGI: 18.7 µM
HCC-2998 colon
  GI50: 1.68 µM
  TGI: 3.11 µM
HCT-15 colon
  GI50: 1.72 µM
  TGI: 3.45 µM
MDA-MB-468 breast
  GI50: 1.69 µM
  TGI: 3.34 µM
ACHN renal
  GI50: 1.64 µM
  TGI: 3.05 µM
SF-539 CNS
  GI50: 1.84 µM
  TGI: 3.26 µM
NCI-H226 lung
  GI50: 1.95 µM
  TGI: 4.31 µM
RPMI-8226 leukemia
  GI50: 2.02 µM
  TGI: 8.62 µM
UACC-257 melanoma
  GI50: 1.9 µM
  TGI: 3.8 µM
NCI-H460 lung
  GI50: 1.66 µM
  TGI: 3.35 µM
SK-MEL-5 melanoma
  GI50: 1.4 µM
  TGI: 2.7 µM
A498 renal
  GI50: 2.34 µM
  TGI: 6.47 µM
COLO 205 colon
  GI50: 2.01 µM
  TGI: 3.57 µM
CCRF-CEM leukemia
  GI50: 0.59 µM
  TGI: 3.37 µM
T-47D breast
  GI50: 1.42 µM
  TGI: 3.47 µM
IGROV1 ovarian
  GI50: 1.77 µM
  TGI: 3.44 µM
SW-620 colon
  GI50: 1.73 µM
  TGI: 3.68 µM
SK-MEL-28 melanoma
  GI50: 1.77 µM
  TGI: 3.38 µM

## CNC(=O)c1cccc(NC(=O)c2ccc3c(c2)nnn3/C(C#N)=C/c2ccccn2)c1
HL-60(TB) leukemia
  GI50: 3.21 µM
  TGI: 24.2 µM
HOP-62 NSCLC
  GI50: 17.9 µM
  TGI: 41.2 µM
NCI-H23 lung
  GI50: 13.4 µM
  TGI: 26.8 µM
OVCAR-3 ovarian
  GI50: 3.11 µM
  TGI: 10.2 µM
M14 melanoma
  GI50: 10.9 µM
  TGI: 23 µM
MDA-MB-435
  GI50: 7.69 µM
  TGI: 21.4 µM
UO-31 renal
  GI50: 12.7 µM
  TGI: 25.3 µM
A549 NSCLC
  GI50: 22.1 µM
  TGI: 60 µM
U251 CNS
  GI50: 15.3 µM
  TGI: 32.2 µM
HS 578T breast
  GI50: 12.6 µM
  TGI: 38.1 µM
SNB-75 CNS
  GI50: 17.7 µM
  TGI: 92.4 µM
SK-MEL-2 melanoma
  GI50: 12.8 µM
  TGI: 25.9 µM
MCF7 breast
  GI50: 3.46 µM
  TGI: 15.6 µM
RXF 393 renal
  GI50: 4.88 µM
  TGI: 16.9 µM
TK-10 renal
  GI50: 14 µM
  TGI: 27.6 µM
DU-145 prostate
  GI50: 15.3 µM
  TGI: 29 µM
PC-3 prostate
  GI50: 19.2 µM
  TGI: 48 µM
SF-268 CNS
  GI50: 17.9 µM
  TGI: 41.4 µM
NCI-H522 lung
  GI50: 1.61 µM
  TGI: 3.14 µM
MOLT-4 leukemia
  GI50: 3.51 µM
  TGI: 39 µM
EKVX NSCLC
  GI50: 15.8 µM
  TGI: 30.2 µM
OVCAR-5 ovarian
  GI50: 15.7 µM
  TGI: 29.3 µM
BT-549 breast
  GI50: 1.95 µM
  TGI: 5.59 µM
SNB-19 CNS
  GI50: 18.6 µM
  TGI: 38.9 µM
SN12C renal
  GI50: 16.4 µM
  TGI: 30.3 µM
LOX IMVI melanoma
  GI50: 1.86 µM
  TGI: 3.9 µM
K-562 leukemia
  GI50: 3.11 µM
  TGI: > 100 µM
786-0 renal
  GI50: 2.38 µM
  TGI: 7.7 µM
SR leukemia
  GI50: 2.76 µM
  TGI: > 100 µM
MALME-3M melanoma
  GI50: 1.85 µM
  TGI: 3.94 µM
HOP-92 NSCLC
  GI50: 11.6 µM
  TGI: 27.3 µM
SF-295 CNS
  GI50: 19.7 µM
  TGI: 39.5 µM
HCT-116 colon
  GI50: 2.74 µM
  TGI: 10.1 µM
CAKI-1 renal
  GI50: 6.37 µM
  TGI: 19.9 µM
MDA-MB-231 breast
  GI50: 11.8 µM
  TGI: 24.7 µM
UACC-62 melanoma
  GI50: 14 µM
  TGI: 27.7 µM
OVCAR-8 ovarian
  GI50: 15.3 µM
  TGI: 29.8 µM
HT29 colon
  GI50: 10.5 µM
  TGI: 31.1 µM
SK-OV-3 ovarian
  GI50: 30.2 µM
  TGI: > 100 µM
HCC-2998 colon
  GI50: 16.1 µM
  TGI: 29.8 µM
HCT-15 colon
  GI50: 10.8 µM
  TGI: 23.6 µM
MDA-MB-468 breast
  GI50: 1.71 µM
  TGI: 3.43 µM
ACHN renal
  GI50: 13.7 µM
  TGI: 26.8 µM
SF-539 CNS
  GI50: 13.8 µM
  TGI: 26.9 µM
NCI-H226 lung
  GI50: 14.3 µM
  TGI: 29.2 µM
RPMI-8226 leukemia
  GI50: 10.4 µM
  TGI: 52.1 µM
UACC-257 melanoma
  GI50: 8.21 µM
  TGI: 21.2 µM
NCI-H460 lung
  GI50: 15.7 µM
  TGI: 34.1 µM
OVCAR-4 ovarian
  GI50: 15.7 µM
  TGI: 29.4 µM
SK-MEL-5 melanoma
  GI50: 14.1 µM
  TGI: 27.4 µM
A498 renal
  GI50: 18.6 µM
  TGI: 41.1 µM
COLO 205 colon
  GI50: 2.63 µM
  TGI: 6.7 µM
KM12 colon
  GI50: 16.5 µM
  TGI: 46.9 µM
CCRF-CEM leukemia
  GI50: 3.71 µM
  TGI: 38.4 µM
T-47D breast
  GI50: 2.31 µM
  TGI: 7.38 µM
IGROV1 ovarian
  GI50: 13.6 µM
  TGI: 27.5 µM
SW-620 colon
  GI50: 1.87 µM
  TGI: 3.75 µM
SK-MEL-28 melanoma
  GI50: 1.95 µM
  TGI: 4.33 µM
